{"source": "patent US20140023726A1", "about": "“POLYMORPHISMS PREDICTIVE OF PLATINUM-COORDINATING COMPLEX INDUCED OTOTOXICITY” (The University of British Columbia, priority 2006, published 2014)", "origin": "cited, not measured here", "note": "Where two headings read alike, the source gives them in different places."}
{"smiles": "N.N.[Cl][Pt][Cl]", "note": "[cisplatin, trans-diaminedichloro-platinum(II)]", "values": [{"measurement": "Permanent hearing loss, frequency in patients", "setting": "children less than 5, standard doses of cisplatin", "result": 48, "unit": "%"}, {"measurement": "Permanent hearing loss, frequency in patients", "setting": "patients receiving standard doses of cisplatin", "result": 25, "unit": "%"}]}
